According to patent US20200317741A1, “COMPOSITION FOR PREVENTING HAIR LOSS OR PROMOTING HAIR GROWTH” (BR PHARM CO., LTD., priority 2019, published 2020):
Ends that are not written are not given here.

Experiments:
Format in all cases: cell-based
c-myc = assay: Expression analysis of c-myc in dermal papilla cells (western blot); conditions: for activity of c-myc: FIG. 7 legend
Method: (§1) As in Example 1, the dermal papilla cells were stabilized for at least 4 hours after seeding in 6 well plates at 4×10^4 cells/well. Thereafter, the medium was removed, and the cell was treated with PDRN, Wnt-1 peptide and Wnt-2 peptide at various concentrations alone or in combination and incubated for 72 hours in an incubator at 37° C., 5% CO2.
(§2) Then, the cells were lysed by adding lysis buffer (1 M Tris-HCl, 0.5 M EDTA, 1% Triton X-100, 100 mM PMSF) to each cell, and the protein was quantified using a BCA (Bicinconinic acid) kit. 20 μg of protein was loaded on 10% SDS-polyacrylamide and electrophoresed at 125 V. The protein separated by electrophoresis was transferred to PVDF membrane (Immobilon-P transfermembrane) by electrophoresis at 50 mA for 120 minutes using transfer buffer (20% methanol, 25 mM Tris-HCl, 192 mM glycine).
(§3) To prevent nonspecific binding, the membranes were blocked with 5% non-fat skim milk and then the reaction was carried out at 4° C. for 12 hours with a primary antibody (β-catenin, c-myc, Santa Cruz Biotechnology, Inc.) diluted to 1:1000 in TTBS solution ([…], pH 7.4; 20 mM NaCl; 0.05% Tween-20). Thereafter, the membrane was washed three times with TTBS and reacted with a secondary antibody (HRP-conjugated anti-rabbit IgG) diluted to 1:2000 at room temperature for 2 hours. The membrane was then washed three times with TTBS and then protein expression was confirmed on the X-ray film using an ECL diagnostic kit.

dermal papilla cells [1] = assay: Dermal papilla cell growth by Wnt-derived peptides (microscopy); conditions: 100 ng/mL among 10-10000 ng/mL, 72 hours (FIG. 3C)
Method: (§4) To confirm the shape change and proliferation rate of cells, keratinocytes T0020001 (AddexBio), fibroblasts (ATCC), and dermal papilla cells were cultured in DMEM medium containing 10% fetal bovine serum and 1% penicillin/streptomycin.
(§5) After the cells were recovered by treating the cultured cells with trypsin/EDTA and the number of cells was measured using a hematocytometer. The cells were seeded in 96 well plates at 3×10^3 cells/200 μL/well and stabilized for at least 4 hours.
(§6) Thereafter, the medium was removed, diluted with DEME medium so as to be the Wnt peptides (Wnt-1, Wnt-2) of 10, 100, 1000, and 10000 ng/mL and then treated with cells and cultured for 72 hours in an incubator at 37° C., 5% CO2. The cells were then observed by a microscope to analyze the morphology and growth rate of the cells.

keratinocytes = assay: Keratinocyte growth by Wnt-derived peptides (microscopy); conditions: 72 hours (FIG. 3A)
Method: as §4, §5, §6

β-catenin = assay: Expression analysis of β-catenin in dermal papilla cells (western blot); conditions: FIG. 6 legend
Method: as §1, §2, §3

fibroblasts = assay: Fibroblast growth by Wnt-derived peptides (microscopy); conditions: 10-10000 ng/mL, 72 hours, compared to the control group (FIG. 3B)
Method: as §4, §5, §6

dermal papilla cells [2] = assay: Dermal papilla cell growth rate by cell counting (PDRN alone or with Wnt-1+Wnt-2); conditions: PDRN 50, 100, 200 μg/mL, 72 hours, relative to control without PDRN (FIG. 2)
Method: Dermal papilla cells (Promocells) were cultured in an incubator at 37° C., 5% CO2 using DMEM medium (Dulbeco's Modified Eagle's Medium) containing 10% fetal bovine serum (FBS) and 1% penicillin/streptomycin.
Cells were recovered by treating the cultured cells with trypsin/EDTA, and then the number of cells was measured using a hemacytometer. The cells were seeded in 96 well plates at 3×10^3 cells/200 μL/well and then stabilized for at least 4 hours. Thereafter, the medium was removed, diluted in DEME medium so as to be the polydeoxyribonucleotide (PDRN) of 50, 100, 200 μg/mL concentration and then treated with cells and cultured for 72 hours in an incubator at 37° C., 5% CO2.
Subsequently, the cells were recovered by treating them with trypsin/EDTA and then the number of cells was measured using a hematocytometer. Cell growth rate was analyzed by calculating percentages based on the control group without the treatment with PDRN.
As in Example 1, the dermal papilla cells were seeded in 96 well plates at 3×10^3 cells/200 μL/well and stabilized for at least 4 hours. Thereafter, the medium was removed, diluted with DEME medium so as to be polydeoxyribonucleotide (PDRN, BR Pharm Co. Ltd.) of 25, 50, 100 μg/mL and Wnt-1 peptide+Wnt-2 peptide of 0.1 μg/mL (each 0.05 μg/mL) and then treated with cells and cultured for 72 hours in an incubator at 37° C., 5% CO2.

Substance	activity of c-myc (c-myc)	cell growth rate (dermal papilla cells) at 100 ng/mL (dermal papilla cells [1])	growth rate of the cells (keratinocytes) (keratinocytes; 10, 100, 1000, 10000 ng/mL)	activity of β-catenin (β-catenin)	cell growth (fibroblasts) compared to the control group (fibroblasts)	cell growth rate (keratinocytes) at 100 ng/mL (keratinocytes; 100 ng/mL among 10-10000 ng/mL)	expression of c-myc with PDRN treatment concentration (c-myc; 72 hours (FIG. 7))	growth rate of the dermal papilla cells (dermal papilla cells [2])
MCCGRGYDQF (Ac-MCCGRGYDQF; cysteine pairing not given here) [Wnt-1]	effect of increasing the activity of c-myc	highest cell growth rate	growth rate of the cells was increased	effect of increasing the activity of β-catenin				
MCCGRGYNYH (Ac-MCCGRGYNYH; cysteine pairing not given here) [Wnt-2]	effect of increasing the activity of c-myc	highest cell growth rate		effect of increasing the activity of β-catenin	no change was observed	highest cell growth rate		
polydeoxyribonucleotide [PDRN]				effect of increasing the activity of β-catenin			increased as the treatment concentration of PDRN increased	increases as the PDRN treatment concentration increases
